{"source": "patent US10836743B2", "about": "“Fluorinated cyclopropylamine compound, preparation method therefor, pharmaceutical composition thereof, and uses thereof” (SHANGHAI INSTITUTE OF MATERIA MEDICA, CHINESE ACADEMY OF …, priority 2016, dated 2020)", "key": {"Human recombinant MAOA": {"target": "Human recombinant MAOA (Homo sapiens (Human), UniProt P21397)", "sequence (P21397 whole entry)": "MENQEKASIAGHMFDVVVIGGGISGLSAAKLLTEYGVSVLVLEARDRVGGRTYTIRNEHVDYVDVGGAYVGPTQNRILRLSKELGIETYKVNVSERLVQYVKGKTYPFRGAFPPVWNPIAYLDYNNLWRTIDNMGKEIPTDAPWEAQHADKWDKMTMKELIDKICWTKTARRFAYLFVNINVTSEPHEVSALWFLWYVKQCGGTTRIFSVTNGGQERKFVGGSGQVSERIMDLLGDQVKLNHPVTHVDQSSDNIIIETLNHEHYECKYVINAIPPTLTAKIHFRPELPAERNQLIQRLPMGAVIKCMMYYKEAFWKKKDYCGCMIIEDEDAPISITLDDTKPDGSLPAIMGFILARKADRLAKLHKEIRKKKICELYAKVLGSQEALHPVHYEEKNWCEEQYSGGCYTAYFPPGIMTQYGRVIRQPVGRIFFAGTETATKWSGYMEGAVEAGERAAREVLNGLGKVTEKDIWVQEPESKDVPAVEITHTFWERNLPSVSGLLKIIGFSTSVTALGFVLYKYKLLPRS", "assay": "MAOA in vitro activity (MAO-Glo)", "assay_type": "biochemical"}, "Human recombinant LSD1": {"target": "Human recombinant LSD1 (Homo sapiens (Human), UniProt O60341)", "quoted_text": "LSD1 In Vitro Activity Assay\nInstrument: microplate reader Envision™ (PerkinElmer, USA)."}, "[1]": {"system": "CD86 expression in leukemia cell line MV4-11", "assay": "CD86 gene expression activation test (quantitative real-time PCR)", "assay_type": "cell-based, human", "settings": "CD86 activation fold, 24 h", "protocol": "CD86 Gene Expression Activation Test: Experimental Principle:\nQuantitative Real-time PCR is a method for measuring the total amount of the product after each polymerase chain reaction (PCR) cycle by using fluorescent chemicals in a DNA amplification reaction. Quantitative analysis of a specific DNA sequence in a sample to be tested was conducted by internal reference method or external reference method. There is a linear relationship between the Ct value of the template and the initial copy number of the template during the exponential phase of PCR amplification, which serves as a basis for quantification.\n• 1. 350 w/mL MV4-11 cells were accurately counted in a 12-well plate at 900 μL per well. • 2. […] The sample was transferred to a 1.5 mL EP tube, centrifuged at 2000 rpm for 3 min, and the supernatant was removed. […] of trizol was added for lysis and allowed to stand for 3 min. • 4. […] The supernatant was removed, and the EP tube was air-dried in a fume hood. 20-30 μL of RNase inactivated deionized water was added and mixed to measure the RNA concentration. • 8. […] 100 μL of deionized water was added to the EP tube and mixed. • 10. […]"}, "human recombinant MAOB": {"target": "human recombinant MAOB (Homo sapiens (Human), UniProt P27338)", "sequence (P27338 whole entry)": "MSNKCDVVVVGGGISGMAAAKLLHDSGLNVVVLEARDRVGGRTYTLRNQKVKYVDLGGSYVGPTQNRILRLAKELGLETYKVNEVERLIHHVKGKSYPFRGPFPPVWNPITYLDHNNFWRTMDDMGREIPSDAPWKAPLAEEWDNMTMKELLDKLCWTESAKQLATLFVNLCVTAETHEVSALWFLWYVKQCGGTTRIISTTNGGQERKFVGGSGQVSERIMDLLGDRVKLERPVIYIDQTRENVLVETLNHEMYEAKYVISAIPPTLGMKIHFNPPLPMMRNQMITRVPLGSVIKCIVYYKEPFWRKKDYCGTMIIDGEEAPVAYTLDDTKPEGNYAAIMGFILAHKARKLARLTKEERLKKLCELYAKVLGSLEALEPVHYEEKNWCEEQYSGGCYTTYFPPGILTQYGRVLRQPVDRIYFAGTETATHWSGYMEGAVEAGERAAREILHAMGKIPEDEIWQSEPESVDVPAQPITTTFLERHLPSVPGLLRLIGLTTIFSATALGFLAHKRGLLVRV", "assay": "MAOB in vitro activity (MAO-Glo)", "assay_type": "biochemical"}, "leukemia cells MV4-11": {"system": "leukemia cells MV4-11", "assay": "Inhibitory activity on growth by MTS method", "assay_type": "cell-based", "settings": "Homo sapiens", "protocol": "2. Test of Inhibitory Activities of Compound on Growth by MTS Method Experimental Principle:\nMTS assay detects the inhibitory effect of the tested compound to the growth of leukemia cells MV (4:11). The principle is that succinate dehydrogenase in mitochondria in living cells can reduce exogenous thiazole blue to insoluble blue crystal Formazan.\n• 1. MV4-11 cells in logarithmic growth phase were accurately counted at 16000 cells/mL, and the diluted cell solution was added to 96-well plates at 90 μL per well. • 2. Fresh medium was taken and sequentially added to a 96-well plate with cell fluid at 90 μL per well. • 3. […] 2 μL of the diluted compound was respectively added to a 96-well plate containing 98 μL of blank medium, and for DMSO group, 98 μL of blank medium was added into 2 μL of DMSO, and mixed for further use. • 5. The compound mixed with the medium was separately added to a 96-well plate in which cells were plated, in triplicate, 20 μL per well, and were mixed. The blank group was added with 200 μL of IMDM medium, and the DMSO group was added with 180 μL of the cell-containing medium in DMSO diluted with the medium. • 6. […]"}, "in vivo": {"assay": "in vivo", "settings": "mouse"}, "[2]": {"system": "human acute myeloid leukemia MV4-11 subcutaneous transplantation tumor", "assay": "Growth of subcutaneous transplantation tumor in nude mice", "assay_type": "in vivo, Balb/c nude mice", "settings": "10 mg/kg qd p.o., 21 days", "text": "Example 3 Evaluation of Chronic Efficacy at the Animal Level:\nInhibitory Effect of LSD1 Inhibitor on the Growth of Subcutaneous Transplantation Tumor in Nude Mice of Human Acute Myeloid Leukemia MV4-11 […]\nAnimals: Balb/c nude mice, female, weighing 17-20 g, were purchased from Beijing Weitong Lihua Experimental Animal Technology Co., Ltd., and the number of animals per group was 5.\nCell line: MV4-11 cell line was used to inoculate at the right axilla of the nude mice, and the inoculation amount was 5×10^6/animal. The experiment can start after the transplanted tumor was formed.\nFor female nude mice weighing 20±3 g, MV4-11 cells were inoculated into the right axilla of nude mice at a inoculation amount of 5×10^6/mouse. After tumor formation, the diameter of the transplanted tumor was measured with a vernier caliper. And after the tumor has grown into 100-300 mm^3, the animals were divided into model control group and drug-administered group according to body weight and tumor volume, with 5 mouse in each group. The model control group was given an equal amount of blank solvent. Oral gavage was used daily after grouping for 21 days.\nNote: Wc: tumor weight of control group, WT: tumor weight of treatment group.\nData processing: Data were expressed as mean±standard deviation, and statistical methods were T-TEST two-tailed analysis for significant analysis."}}, "note": "“And” between values parts separate entries of the source, which are not always exact repeats. Equal entries are not always repeated. Where two headings read alike, the source gives them in different places.", "data": [{"smiles": "O=C(O)c1ccc(CN2CCC(CN[C@@H]3C[C@H]3c3ccccc3)CC2)cc1", "note": "[GSK-2879552]", "values": [{"measurement": "IC50", "setting": "Human recombinant MAOA", "value": "> 100", "unit": "µM"}, {"measurement": "IC50", "setting": "Human recombinant LSD1", "value": "1220 ± 327", "unit": "nM"}, {"measurement": "Activation ratio (10 nM)", "setting": "[1]; MV4-11, 10 nM", "value": "1.79 ± 0.37"}, {"measurement": "Activation ratio (100 nM)", "setting": "[1]; MV4-11, 100 nM", "value": "9.76 ± 2.23"}, {"measurement": "IC50", "setting": "human recombinant MAOB", "value": "> 100", "unit": "µM"}, {"measurement": "IC50", "setting": "leukemia cells MV4-11; 72 h, MV4-11, 3 days, read-out: MTS 3 D", "value": "> 20000", "unit": "nM"}, {"measurement": "IC50", "setting": "leukemia cells MV4-11; 240 h, MV4-11, 10 days, read-out: MTS 10 D", "value": "1030 ± 360", "unit": "nM"}, {"measurement": "AUC(0-inf)", "setting": "in vivo; iv", "value": 4420, "unit": "ng·h/mL"}, {"measurement": "AUC(0-t)", "setting": "in vivo; iv", "value": 4410, "unit": "ng·h/mL"}, {"measurement": "Cmax", "setting": "in vivo; iv", "value": 7740, "unit": "ng/mL"}, {"measurement": "MRT inf", "setting": "in vivo; iv", "value": 0.96, "unit": "h"}, {"measurement": "Tmax", "setting": "in vivo; iv", "value": 0.083, "unit": "h"}, {"measurement": "Vd", "setting": "in vivo; iv", "value": 2.18, "unit": "L/kg"}, {"measurement": "clearance", "setting": "in vivo; iv", "value": 37.7, "unit": "mL/min/kg"}, {"measurement": "half-life", "setting": "in vivo; iv", "value": 4.36, "unit": "h"}, {"measurement": "AUC(0-inf)", "setting": "in vivo; po", "value": 5360, "unit": "ng·h/mL"}, {"measurement": "AUC(0-t)", "setting": "in vivo; po", "value": 5350, "unit": "ng·h/mL"}, {"measurement": "Cmax", "setting": "in vivo; po", "value": 9180, "unit": "ng/mL"}, {"measurement": "MRT inf", "setting": "in vivo; po", "value": 1.18, "unit": "h"}, {"measurement": "Tmax", "setting": "in vivo; po", "value": 0.167, "unit": "h"}, {"measurement": "bioavailability", "setting": "in vivo; po", "value": 60.7, "unit": "%"}, {"measurement": "half-life", "setting": "in vivo; po", "value": 4.24, "unit": "h"}, {"measurement": "Tumor inhibition rate (%)", "setting": "[2]", "value": 51.96, "unit": "%"}, {"measurement": "Tumor weight (g) mean ± SD", "setting": "[2]", "value": "0.55 ± 0.55", "unit": "g"}, {"measurement": "Tumor weight (g), individual animals 1-5", "setting": "[2]", "value": "0.22 g and 1.19 g and 0.00 g and 1.25 g and 0.10 g"}]}]}
